Measured values taken from ChEMBL document CHEMBL4665709, “Rational Avoidance of Protease Cleavage Sites and Symmetrical End-Tagging Significantly Enhances the Stability and Therapeutic Potential of Antimicrobial Peptides” (J Med Chem, 2020).
Converted amounts (≈) assume the structure as drawn. Where a SMILES comes first, the peptide text is derived from it.

What was measured:
Escherichia coli [1] = experiment: Antibacterial activity against Escherichia coli ATCC 25922 after 18 to 24 hrs in presence of 150 mM Na+ by CLSI-based broth microdilution method; type: functional; conditions: time hrs 18-24
Staphylococcus aureus [2] = experiment: Antibacterial activity against Staphylococcus aureus ATCC 29213 after 18 to 24 hrs in presence of 6 uM NH4+ by CLSI-based broth microdilution method; type: functional; conditions: time hrs 18-24
Staphylococcus aureus [3] = experiment: Antibacterial activity against Staphylococcus aureus ATCC 29213 after 18 to 24 hrs in presence of 100% human serum by CLSI-based broth microdilution method; type: functional; conditions: time hrs 18-24
Staphylococcus aureus [4] = experiment: Antibacterial activity against Staphylococcus aureus 11011 after 18 to 24 hrs by CLSI-based broth microdilution method; type: functional; conditions: time hrs 18-24
Escherichia coli [5] = experiment: Antibacterial activity against Escherichia coli ATCC 25922 after 18 to 24 hrs in presence of 6 uM Fe3+ by CLSI-based broth microdilution method; type: functional; conditions: time hrs 18-24
[6] = Therapeutic index, ratio of MHC for human RBC to geometric mean of peptide MIC for Salmonella typhimurium 14028; type: toxicity; conditions: human red blood cells (RBC), read-out: TI
[7] = Therapeutic index, ratio of MHC for human RBC to geometric mean of peptide MIC for Escherichia coli UB1005; type: toxicity; conditions: human red blood cells (RBC), read-out: TI
Staphylococcus aureus [8] = experiment: Antibacterial activity against Staphylococcus aureus ATCC 29213 after 18 to 24 hrs in presence of 150 mM Na+ by CLSI-based broth microdilution method; type: functional; conditions: time hrs 18-24
[9] = Therapeutic index, ratio of MHC for human RBC to geometric mean of peptide MIC for Staphylococcus aureus ATCC 29213; type: toxicity; conditions: human red blood cells (RBC), read-out: TI
[10] = Therapeutic index, ratio of MHC for human RBC to geometric mean of peptide MIC for Salmonella pullorum 7913; type: toxicity; conditions: human red blood cells (RBC), read-out: TI
Staphylococcus aureus [11] = experiment: Antibacterial activity against Staphylococcus aureus ATCC 29213 after 18 to 24 hrs in presence of 25% human serum by CLSI-based broth microdilution method; type: functional; conditions: time hrs 18-24
Staphylococcus aureus [12] = experiment: Antibacterial activity against methicillin-resistant Staphylococcus aureus 43300 after 18 to 24 hrs by CLSI-based broth microdilution method; type: functional; conditions: time hrs 18-24
[13] = system: Staphylococcus epidermidis; experiment: Antibacterial activity against Staphylococcus epidermidis ATCC 12228 after 18 to 24 hrs by CLSI-based broth microdilution method; type: functional; conditions: time hrs 18-24
Escherichia coli [14] = experiment: Antibacterial activity against Escherichia coli ATCC 25922 after 18 to 24 hrs in presence of 4.5 mM K+ by CLSI-based broth microdilution method; type: functional; conditions: time hrs 18-24
Staphylococcus aureus [15] = experiment: Antibacterial activity against Staphylococcus aureus ATCC 29213 after 18 to 24 hrs in presence of 8 uM Zn2+ by CLSI-based broth microdilution method; type: functional; conditions: time hrs 18-24
[16] = Therapeutic index, ratio of MHC for human RBC to geometric mean of peptide MIC for Streptococcus agalactiae H92; type: toxicity; conditions: human red blood cells (RBC), read-out: TI
Staphylococcus aureus [17] = experiment: Antibacterial activity against Staphylococcus aureus ATCC 29213 after 18 to 24 hrs in presence of 6 uM Fe3+ by CLSI-based broth microdilution method; type: functional; conditions: time hrs 18-24
[18] = Therapeutic index, ratio of MHC for human RBC to geometric mean of peptide MIC for methicillin-resistant Staphylococcus aureus 43300; type: toxicity; conditions: human red blood cells (RBC), read-out: TI
Escherichia coli [19] = experiment: Antibacterial activity against Escherichia coli ATCC 25922 after 18 to 24 hrs by CLSI-based broth microdilution method; type: functional; conditions: time hrs 18-24
[20] = Antibacterial activity against Salmonella pullorum 7913 after 18 to 24 hrs by CLSI-based broth microdilution method; type: functional, Salmonella enterica subsp. enterica serovar Pullorum; conditions: Salmonella enterica, time hrs 18-24
Salmonella enterica = experiment: Antibacterial activity against Salmonella choleraesuis 503 after 18 to 24 hrs by CLSI-based broth microdilution method; type: functional; conditions: time hrs 18-24
[21] = Cytotoxicity against mouse RAW264.7 cells assessed as cell viability at 128 uM by MTT assay relative to control; type: cell-based; conditions: read-out: Activity
Escherichia coli [22] = experiment: Antibacterial activity against Escherichia coli ATCC 25922 after 18 to 24 hrs in presence of 50% human serum by CLSI-based broth microdilution method; type: functional; conditions: time hrs 18-24
Staphylococcus aureus [23] = experiment: Antibacterial activity against Staphylococcus aureus ATCC 29213 after 18 to 24 hrs in presence of 4.5 mM K+ by CLSI-based broth microdilution method; type: functional; conditions: time hrs 18-24
[24] = Therapeutic index, ratio of MHC for human RBC to geometric mean of peptide MIC for Staphylococcus epidermidis ATCC 12228; type: toxicity; conditions: human red blood cells (RBC), read-out: TI
[25] = Therapeutic index, ratio of MHC for human RBC to geometric mean of peptide MIC for Salmonella choleraesuis 503; type: toxicity; conditions: human red blood cells (RBC), read-out: TI
Salmonella typhimurium [26] = experiment: Antibacterial activity against Salmonella typhimurium 14028 after 18 to 24 hrs by CLSI-based broth microdilution method; type: functional, Salmonella enterica subsp. enterica serovar Typhimurium; conditions: Salmonella enterica, time hrs 18-24
Enterococcus faecalis = experiment: Antibacterial activity against Enterococcus faecalis ATCC 29212 after 18 to 24 hrs by CLSI-based broth microdilution method; type: functional; conditions: time hrs 18-24
Staphylococcus aureus [27] = experiment: Antibacterial activity against Staphylococcus aureus ATCC 29213 after 18 to 24 hrs in presence of 1 mM Mg2+ by CLSI-based broth microdilution method; type: functional; conditions: time hrs 18-24
Salmonella typhimurium [28] = experiment: Antibacterial activity against Salmonella typhimurium 7731 after 18 to 24 hrs by CLSI-based broth microdilution method; type: functional, Salmonella enterica subsp. enterica serovar Typhimurium; conditions: Salmonella enterica, time hrs 18-24
Escherichia coli [29] = experiment: Antibacterial activity against Escherichia coli ATCC 25922 after 18 to 24 hrs in presence of 100% human serum by CLSI-based broth microdilution method; type: functional; conditions: time hrs 18-24
[30] = Therapeutic index, ratio of MHC for human RBC to geometric mean of peptide MIC for Enterococcus faecalis ATCC 29212; type: toxicity; conditions: human red blood cells (RBC), read-out: TI
[31] = Cytotoxicity against HEK-293T cells assessed as cell viability at 128 uM by MTT assay relative to control; type: cell-based; conditions: human, read-out: Activity
Escherichia coli [32] = experiment: Antibacterial activity against Escherichia coli ATCC 25922 after 18 to 24 hrs in presence of 6 uM NH4+ by CLSI-based broth microdilution method; type: functional; conditions: time hrs 18-24
Escherichia coli [33] = experiment: Antibacterial activity against Escherichia coli ATCC 25922 after 18 to 24 hrs in presence of 25% human serum by CLSI-based broth microdilution method; type: functional; conditions: time hrs 18-24
Erythrocyte = experiment: Hemolytic activity in human RBC assessed as hemolysis; type: ADME, cell-based
Escherichia coli [34] = experiment: Antibacterial activity against Escherichia coli ATCC 25922 after 18 to 24 hrs in presence of 8 uM Zn2+ by CLSI-based broth microdilution method; type: functional; conditions: time hrs 18-24
Escherichia coli [35] = experiment: Antibacterial activity against Escherichia coli UB1005 after 18 to 24 hrs by CLSI-based broth microdilution method; type: functional; conditions: time hrs 18-24
Staphylococcus aureus [36] = experiment: Antibacterial activity against Staphylococcus aureus ATCC 29213 after 18 to 24 hrs in presence of 50% human serum by CLSI-based broth microdilution method; type: functional; conditions: time hrs 18-24
Escherichia coli [37] = experiment: Antibacterial activity against Escherichia coli ATCC 25922 after 18 to 24 hrs in presence of 1 mM Mg2+ by CLSI-based broth microdilution method; type: functional; conditions: time hrs 18-24
[38] = Therapeutic index, ratio of MHC for human RBC to geometric mean of peptide MIC for Staphylococcus aureus 11011; type: toxicity; conditions: human red blood cells (RBC), read-out: TI
Streptococcus agalactiae = experiment: Antibacterial activity against Streptococcus agalactiae H92 after 18 to 24 hrs by CLSI-based broth microdilution method; type: functional; conditions: time hrs 18-24
[39] = Therapeutic index, ratio of MHC for human RBC to geometric mean of peptide MIC for Salmonella typhimurium 7731; type: toxicity; conditions: human red blood cells (RBC), read-out: TI
[40] = Therapeutic index, ratio of MHC for human RBC to geometric mean of peptide MIC for Escherichia coli ATCC 25922; type: toxicity; conditions: human red blood cells (RBC), read-out: TI
[41] = Stability of compound at 100 degreeC after 30 to 90 mins; type: physicochemical; conditions: time 30-90 min
[42] = Hemolytic activity in human RBC assessed as hemolysis at 1 to 128 uM relative to control; type: ADME, cell-based, Erythrocyte; conditions: human red blood cells (RBC), dose 1-128 µM, read-out: Activity
Staphylococcus aureus [43] = experiment: Antibacterial activity against Staphylococcus aureus ATCC 29213 after 18 to 24 hrs by CLSI-based broth microdilution method; type: functional; conditions: time hrs 18-24

## CC[C@H](C)[C@H](N)C(=O)N[C@@H](CS)C(=O)N[C@@H](CCCNC(=N)N)C(=O)N[C@@H](CCCCN)C(=O)N1CCC[C@H]1C(=O)N[C@H](C(=O)N[C@H](C(=O)N[C@@H](CS)C(=O)N[C@@H](CCCNC(=N)N)C(=O)N[C@@H](CCCCN)C(=O)N1CCC[C@H]1C(=O)N[C@H](C(=O)N[C@H](C(=O)N[C@@H](CS)C(=O)N[C@@H](CCCNC(=N)N)C(=O)N[C@@H](CCCCN)C(=O)N1CCC[C@H]1C(=O)N[C@H](C(=O)N[C@H](C(=O)N[C@@H](CS)C(=O)N[C@@H](CCCNC(=N)N)C(=O)N[C@@H](CCCCN)C(=O)N1CCC[C@H]1C(=O)N[C@H](C(N)=O)[C@@H](C)CC)[C@@H](C)CC)[C@@H](C)CC)[C@@H](C)CC)[C@@H](C)CC)[C@@H](C)CC)[C@@H](C)CC (H-ICRKPIICRKPIICRKPIICRKPI-NH2)
Escherichia coli [1]
  MIC: 32 µM
Staphylococcus aureus [2]
  MIC: > 64 µM
Staphylococcus aureus [3]
  MIC: > 64 µM
Staphylococcus aureus [4]
  MIC: > 64 µM
Escherichia coli [5]
  MIC: 4 µM
[6]
  selectivity ratio: 32
[7]
  selectivity ratio: 32
Staphylococcus aureus [8]
  MIC: > 64 µM
[9]
  selectivity ratio: 2
[10]
  selectivity ratio: 32
Staphylococcus aureus [11]
  MIC: > 64 µM
Staphylococcus aureus [12]
  MIC: > 64 µM
[13]
  MIC: > 64 µM
Escherichia coli [14]
  MIC: 4 µM
Staphylococcus aureus [15]
  MIC: > 64 µM
[16]
  selectivity ratio: 2
Staphylococcus aureus [17]
  MIC: > 64 µM
[18]
  selectivity ratio: 2
Escherichia coli [19]
  MIC: 2 µM (≈ 5.72 µg/mL)
[20]
  MIC: 16 µM (≈ 45.8 µg/mL)
Salmonella enterica
  MIC: 8 µM (≈ 22.9 µg/mL)
[21]
  viability at 128 µM: > 90%
Escherichia coli [22]
  MIC: 8 µM
Staphylococcus aureus [23]
  MIC: > 64 µM
[24]
  selectivity ratio: 2
[25]
  selectivity ratio: 32
Salmonella typhimurium [26]
  MIC: 2 µM (≈ 5.72 µg/mL)
Enterococcus faecalis
  MIC: > 64 µM
Staphylococcus aureus [27]
  MIC: > 64 µM
Salmonella typhimurium [28]
  MIC: 4 µM (≈ 11.4 µg/mL)
Escherichia coli [29]
  MIC: 16 µM
[30]
  selectivity ratio: 2
[31]
  viability at 128 µM: > 90%
Escherichia coli [32]
  MIC: 2 µM
Escherichia coli [33]
  MIC: 4 µM
Erythrocyte
  MHC: > 128 µM
Escherichia coli [34]
  MIC: 2 µM
Escherichia coli [35]
  MIC: 2 µM (≈ 5.72 µg/mL)
Staphylococcus aureus [36]
  MIC: > 64 µM
Escherichia coli [37]
  MIC: 8 µM
[38]
  selectivity ratio: 2
Streptococcus agalactiae
  MIC: > 64 µM
[39]
  selectivity ratio: 32
[40]
  selectivity ratio: 32
[41]
  Stabilty: Stable
[42]
  hemolysis at up to 128 µM: < 5%
Staphylococcus aureus [43]
  MIC: > 64 µM
